Results published in ChEMBL document CHEMBL1129654, “2-Carbomethoxy-3-(diarylmethoxy)-1 alpha H, 5 alpha H-tropane analogs: synthesis and inhibition of binding at the dopamine transporter and comparison with piperazines of the GBR series” (J Med Chem, 1996).

Legend:
[1] = target: Sodium-dependent serotonin transporter; test: Inhibition of [3H]citalopram binding to the serotonin transporter in the cynomolgus (macaca fascicularis) monkey caudate-putamen.; type: tissue-based, Cercopithecidae
[2] = Inhibition of [3H]WIN-35428 binding to the dopamine transporter in the cynomolgus (macaca fascicularis) monkey caudate-putamen.

Structure (SMILES): COC(=O)C1C2CCC(C[C@@H]1OC(c1ccccc1)c1ccc(I)cc1)N2C (stereo partly drawn)
- IC50 [1]: 9.28 µM

Structure (SMILES): COC(=O)C1C2CCC(C[C@@H]1OC(c1ccc(Br)cc1)c1ccc(Br)cc1)N2C (stereo partly drawn)
- IC50 [1]: 2.43 µM

Structure (SMILES): COC(=O)C1C2CCC(C[C@@H]1OC(c1ccc(F)cc1)c1ccc(F)cc1)N2CCCc1ccc(Br)cc1 (stereo partly drawn)
- IC50 [1]: 0.234 µM

Structure (SMILES): COC(=O)C1C2CCC(C[C@@H]1OC(c1ccc(F)cc1)c1ccc(F)cc1)N2Cc1ccccc1 (stereo partly drawn)
- IC50 [1]: 4.97 µM

Structure (SMILES): COC(=O)C1C2CCC(C[C@@H]1OC(c1ccccc1)c1ccccc1)N2C (stereo partly drawn)
- IC50 [1]: 10.1 µM

Structure (SMILES): COC(=O)C1C2CCC(C[C@@H]1OC(c1ccccc1)c1ccc(C)cc1)N2C (stereo partly drawn)
- IC50 [1]: 13.2 µM

Structure (SMILES): COC(=O)C1C2CCC(C[C@@H]1OC(c1ccc(F)cc1)c1ccc(F)cc1)N2CCCc1ccc(I)cc1 (stereo partly drawn)
- IC50 [1]: 2.2 µM
- IC50 [2]: 119 nM

Structure (SMILES): COC(=O)C1C2CCC(C[C@@H]1OC(c1ccc(F)cc1)c1ccc(F)cc1)N2CCCc1ccccc1 (stereo partly drawn)
- IC50 [1]: 0.0197 µM

Structure (SMILES): COC(=O)C1C2CC[C@@H](C[C@@H]1OC(c1ccc(F)cc1)c1ccc(F)cc1)N2C (stereo partly drawn)
- IC50 [1]: 3.53 µM

Structure (SMILES): COC(=O)C1C2CCC(C[C@@H]1OC1c3ccccc3-c3ccccc31)N2C (stereo partly drawn)
- IC50 [1]: 3.44 µM
- IC50 [2]: 6030 nM

Structure (SMILES): COC(=O)C1C2CCC(C[C@@H]1OC(c1ccc(Cl)cc1)c1ccc(Cl)cc1)N2C (stereo partly drawn)
- IC50 [1]: 3.36 µM
- IC50 [2]: 91.4 nM

Structure (SMILES): COC(=O)C1C2CCC(C[C@@H]1OC(c1ccccc1)c1ccc(Cl)cc1)N2C (stereo partly drawn)
- IC50 [1]: 5.96 µM

Structure (SMILES): COC(=O)C1C2CCC(C[C@@H]1OC(c1ccccc1)c1ccc(F)cc1)N2C (stereo partly drawn)
- IC50 [1]: 4.93 µM
- IC50 [2]: 13.2 nM

Structure (SMILES): COC(=O)C1C2CCC(C[C@@H]1OC(c1ccc(F)cc1)c1ccc(F)cc1)N2CCCCCc1ccccc1 (stereo partly drawn)
- IC50 [1]: 0.55 µM
- IC50 [2]: 99 nM

Structure (SMILES): COC(=O)C1C2CCC(C[C@@H]1OC(c1ccc(Br)cc1)c1ccc(I)cc1)N2C (stereo partly drawn)
- IC50 [1]: 4.39 µM
- IC50 [2]: 389 nM

Structure (SMILES): CCC(O[C@H]1CC2CCC(C1C(=O)OC)N2C)c1ccccc1 (stereo partly drawn)
- IC50 [1]: 21 µM

Structure (SMILES): COC(=O)C1C2CCC(C[C@@H]1OC(c1ccccc1)c1ccc(Br)cc1)N2C (stereo partly drawn)
- IC50 [1]: 5.77 µM
- IC50 [2]: 24 nM

Structure (SMILES): COC(=O)C1C2CCC(C[C@@H]1OC(c1ccc(I)cc1)c1ccc(I)cc1)N2C (stereo partly drawn)
- IC50 [1]: 8.55 µM

Structure (SMILES): COC(=O)C1C2CCC(C[C@@H]1OC(c1ccc(C)cc1)c1ccc(C)cc1)N2C (stereo partly drawn)
- IC50 [1]: 9.8 µM
- IC50 [2]: 240 nM

Structure (SMILES): CN1C2CCC1CC(OC(c1ccc(F)cc1)c1ccc(F)cc1)C2 (stereo not drawn) [DIFLUOROBENZTROPINE]
- IC50 [1]: 5.34 µM
